Test results reported in the NIST ThermoML archive (doi:10.1021/je101144k).

How the values were obtained:
[1] = molar heat capacity at constant pressure; settings: 101.33 kPa, Liquid, Small sample (50 mg) DSC
[2] = 101.33 kPa, Liquid; for viscosity: Concentric cylinders viscometry; for mass density: Pycnometric method

NCCO [2-aminoethan-1-ol]
Settings | mass density, 303.15 K [kg/m3] | mass density, 313.15 K [kg/m3] | mass density, 323.15 K [kg/m3] | molar heat capacity at constant pressure, 303.15 K [J/K/mol] | molar heat capacity at constant pressure, 313.15 K [J/K/mol] | molar heat capacity at constant pressure, 323.15 K [J/K/mol] | viscosity, 303.15 K [mPa·s] | viscosity, 313.15 K [mPa·s] | viscosity, 323.15 K [mPa·s]
[1] | – | – | – | 163.7 | 167.98 | 172.25 | – | – | –
[2] | 1008.7 | 1000.4 | 992.5 | – | – | – | 15.36 | 10.26 | 7.19
